{"source": "patent US12492403B2", "about": "“Aptamers and the use thereof in the treatment of cancer” (FUNDACIÓN PARA LA INVESTIGACIÓN BIOMÉDICA DEL HOSPITAL …, priority 2018, dated 2025)", "type_in_all_cases": "cell-based, human", "key": {"[1]": {"tested_on": "MCF7, MDA-MB-231, and MDA-MB-468 cells", "experiment": "MTT activity after direct addition of aptamer (no transfectant)", "conditions": "direct addition without transfectant, highest tested concentration (0.5, 1, and 2 μM tested), 48 hours", "procedure": "FIG. 17. MTT activity measurement in breast lines after the direct addition of apMNKQ2. MCF7, MDA-MB-231, and MDA-MB-468 cells were seeded in 96-well plates at a density of 10^4 cells/well, and apMNKQ2 was added at concentrations of 0.5, 1, and 2 μM at 24 hours. MTT assays were performed after 48 hours. The graphs represent the mean of 3 independent experiments, and are normalized with respect to the control of the untreated cells.\nMTT activity. The cells were seeded in 96-well plates and after having been transfected, the culture medium was removed and 100 μL/well of MTT at 1 mg/ml in culture medium were added. The plates were incubated for 90 minutes in an incubator with a moisture-saturated environment at 37° C. and 5% CO2/[…] and 100 μL/well of a lysis solution (10% SDS and 10 mM HCl) were added for dissolving the crystals. After 48 hours, the reduction of MTT was determined by means of spectrophotometry in Infinite F200 (TECAN, Switzerland) at 540 nm.\nThe signal of the aptamer with lipofectamine (FIG. 16B) is more intense and less scattered than when the aptamer enters directly (FIG. 16A). The difference is more evident in the aggregates co-localized in the nucleus. […]"}, "[2]": {"tested_on": "MDA-MB-468 cells", "experiment": "Apoptosis by annexin V/propidium iodide flow cytometry", "conditions": "MDA-MB-468, working concentration 50 nM, 24 hours", "procedure": "(§1) FIGS. 10A-10C. Analysis of the effect of the aptamer on apoptosis with annexin V in breast cell lines. MCF7 (FIG. 10A), MDA-MB-231 (FIG. 10B), and MDA-MB-468 (FIG. 10C) cells were seeded in 6-well plates at a density of 2.5×10^5 cells/well and transfected at 24 hours with apMNKQ2 at the set working concentrations. After 24 hours, the cells were collected, fixed, and stained with annexin V-FITC and propidium iodide. Finally, they were analyzed by cytometry. The bars represent the mean±SEM of 3 independent experiments (*p<0.05, **p<0.01, and ***p<0.001).\n(§2) The assays were carried out by seeding 5×10^5 cells/well in 6-well plates and transfecting the cells 24 hours later. After 24 hours of transfection, the cells were collected and washed twice with PBS. They were then resuspended in a 1× binding buffer and left at a concentration of 1×10^6 cells/mL. Aliquots of 10^5 cells were separated from the preceding solution, as many as the number of treatments, and the annexin V and propidium iodide dyes were added to obtain: a double negative control (without labeling, living cells), a double positive for both types of labeling (late apoptotic cells and necrotic cells will be labeled), and cells labeled separately with annexin V and propidium iodide. They were incubated in darkness for 15 minutes at room temperature and brought to a final volume of 500 μL with a 1× binding buffer. Finally, the cells were passed through a flow cytometer (BD FACSCalibur™, BDBiosciences, USA) within a time no more than 1 hour after labeling. The data obtained was analyzed by means of the Flowing software 2.5.1 program.\n(§3) The translocation of the […] from the inner face of the plasma membrane of the cells to the outer face by translocases is a process characteristic of apoptotic cells. To study this process, assays with annexin V-fluorescein (FITC) were performed in three cell lines. This recombinant protein binds to the phosphatidylserine residues exposed on the outer face of the plasma membrane of apoptotic cells. Together with said recombinant protein, propidium iodide (IP), an impermeable DNA marker that only enters cells when the membrane is compromised, was also used. To perform these assays, the cells were transfected with apMNKQ2 and with the control aptamer AT at the working concentrations. At 24 hours, the cells were collected, fixed, and stained with annexin V-FITC and propidium iodide. Finally, the cells were analyzed by means of flow cytometry and differentiation was made between non-apoptotic cells (annexin V-FICT negative/IP negative), apoptotic cells (annexin V-FICT positive/IP negative), late apoptotic cells (annexin V-FICT positive/IP positive), and necrotic cells (annexin V-FITC negative/IP positive)."}, "[3]": {"tested_on": "MDA-MB-231 cells", "experiment": "Apoptosis by annexin V/propidium iodide flow cytometry", "conditions": "MDA-MB-231, working concentration 400 nM, 24 hours", "procedure": "as §1, §2, §3"}}, "data": [{"substance": "5′TGGGGTGGGCGGGCGGGGGTGGGGGTGGT-3′ (DNA, backbone and methylation of C not given here; further chemistry not fully specified) [apMNKQ2]", "values": [{"measurement": "reduction of MTT activity", "setting": "[1]", "value": 15, "unit": "%"}, {"measurement": "induction of apoptosis (annexin V-FITC/propidium iodide)", "setting": "[2]", "value": "greater and statistically significant"}, {"measurement": "induction of apoptosis (annexin V-FITC/propidium iodide)", "setting": "[3]", "value": "capable of inducing apoptosis"}]}]}
